Assay results taken from patent publication US20120034608A1, “MICRORNA AS A BIOMARKER OF PANCREATIC ISLET BETA-CELL ENGAGEMENT” (Merck Sharp & Dohme Corp., priority 2009, published 2012).

Columns and labels:
Assay type in all cases: cell-based, rat
[1] = system: INS-1 832/3 cells; assay: miRNA expression profiling of GLP-1 treated INS-1 832/3 cells (SYBR green qPCR); details: 50 nM GLP-1 for 24 hours, 16 mM glucose
Experimental: Glucagon like peptide-1 (GLP-1) exerts pleiotropic effects on pancreatic β-cell function. GLP-1 potentiates glucose-dependent insulin secretion (GDIS) in pancreatic β-cells. Chronic administration of GLP-1 also promotes insulin synthesis as well as β-cell proliferation and neogenesis, at least in animal models. The detailed underlying mechanism remains to be fully understood. […] The expression levels of 250 microRNAs in INS-1 832/3 cell cultured in the presence or absence of 50 nM GLP-1 for 24 hours were compared using quantitative reverse transcription polymerase chain reaction (RT-PCR) method.
For GLP-1 treatment, GLP-1 (7-37) amide (ABCHEM) was added in the media in the presence of 16 mM glucose for 24 hours.
For microRNA profiling, total RNA was extracted from INS-1 832/3 cells with TRIZOL reagent (Invitrogen, Carlsbad, Calif.). A total of 250 miRNA species were determined by SYBR green quantitative PCR (qPCR) method at Rossetta Inpharmatics (Seattle, Wash.). Quantitative PCR is a method used to detect relative or absolute gene expression level. All qPCR involves the use of fluorescence to detect the threshold cycle (Ct) during PCR when the level of fluorescence gives signal over the background and is in the linear portion of the amplified curve. […] In this example, the Ct value data was calculated into copy number per 10 pg total RNA using the standard curve method. […]

[2] = system: INS-1 832/3 cells; assay: glucose dependent insulin secretion (GDIS) assay in INS-1 832/3 cells; details: 16 mM glucose, two-hour incubation in KRB
Source text: (§1) We overexpressed the precursors of miR-132 and miR-212 to evaluate their possible contribution to β-cell function. MicroRNA miR-375 was included as a control as it been reported to have an inhibitory effect on GDIS (Poy et al., Nature 432: 226-230 (2004)). Chemically modified Pre-miR™ miRNA precursor molecules and Anti-miR™ miRNA inhibitors were purchased from Ambion (Foster City, Calif.). miRCURY LNA™ microRNA knockdown oligonucleotides were purchased from Exiqon (Woburn, Mass.). The oligonucleotide molecules were delivered to the cells by the Nucleofector Device (Amaxa, Gaithersburg, Md.). In brief, INS-1 cells were trypsinized, centrifuged, and resuspended in 100 μl Nucleofector solution V. Then 100-500 pmole RNA oligonucleotides were transfected to 3-million cells at the concentration of 1-5 μM with the Amaxa Nucleofector Device. Scramble controls from the vendors were used with the same transfection method. After electroporation, the cells were transferred to regular culture medium and then split into replicates in 96-well plates. Insulin secretion assay or LANCE cAMP assay were performed 48 hours post electroporation.
(§2) INS-1 cell glucose dependent insulin secretion (GDIS) assay was performed as follows. The GDIS assay was performed with cells grown to near confluency in 96-well plates. Prior to the assay, cells were washed once with PBS and pre-incubated for two hours in freshly prepared Krebs-Ringer Bicarbonate (KRB) medium without glucose. The medium were then replaced with KRB with 2, 8 or 16 mM glucose or along with 10 nM GLP-1. The cells were incubated for another two hours in a CO2 incubator. The media was then removed at the end of incubation, and assayed for insulin levels by Ultra-sensitive Rat Insulin ELISA kit (ALPCO, Salem, N.H.) or insulin immunoassay by Gyrolab workstation (GYROS AB, Uppsala, Sweden). Intracellular insulin was extracted by acid ethanol method for measuring intracellular insulin content. Total protein was measured by Pierce 660 nm Protein Assay from Pierce Biotechnology, Inc. (Rockford, Ill.).

[3] = system: INS-1 832/13 cells; assay: glucose dependent insulin secretion (GDIS) assay in INS-1 832/13 cells; details: 16 mM glucose, two-hour incubation in KRB
Source text: as §1, §2

[4] = system: INS-1 832/13 cells; assay: TAQMAN analysis of miRNA expression in INS-1 832/13 cells; details: 24 hours post-GLP-1 treatment
Experimental: INS-1 832/3 and 832/13 cells were maintained in RPMI 1640 with 10% FBS and 11 mM glucose. For GLP-1 treatment, GLP-1 (7-37) amide (ABCHEM) was added in the media in the presence of 16 mM glucose for 24 hours. Total RNA was extracted with TRIZOL as in Example 1. Rat islet isolation and treatment was as follows. Pancreatic islets of Langerhans were isolated from the pancreas of normal Sprague-Dawley rats (Charles River, Ind.) by collagenase digestion and discontinuous Ficoll gradient separation (15). Islets were cultured for 2 hours in RPMI 1640 medium with 11 mM glucose for recovery from the isolation process. Then 100-200 islets were treated with 50 nM GLP-1 in the media with 11 mM glucose for 24 hours. RNA was extracted with TRIZOL as in Example 1 for quantification of microRNA species.
Fluorogenic TAQMAN detector probes specific for miR-132 (Cat# TM457), miR-212 (Cat# TM515), miR-375 (Cat#TM564), and miR-217 (Cat#1133) were purchased from Applied Biosystems (Foster City, Calif.). […]
Relative miRNA levels for the miRNAs of interest were determined by real-time reverse transcription reaction using the ABI PRISM 7900 Sequence Detection System from Applied Biosystems (Foster City, Calif.) according to the manufacturer's protocol. […] Data were collected and analyzed with SDS v.2.2.2 software (Applied Biosystems). […]

GLP-1 (7-37) amide
expression of miR-375, miR-9 and miR-124a [1]: no significant changes | increase of insulin secretion upon treatment with GLP-1 [2]: greater than 300% | increase of insulin secretion upon treatment with GLP-1 [3]: less than 50% | increase of miR-132 expression in response to GLP-1 [4]: not observed | increase of miR-212 expression in response to GLP-1 [4]: not observed
